Data taken from US20260022142A1, “MACROCYCLIC IMMUNOMODULATORS” (Bristol-Myers Squibb Company, priority 2022, published 2026).
Numbered stars: 1 amine (or outer) side, 2 acyl side, 3 side chain; on linkers, the order of the positions; unused ones are H or OH. Bridge positions count the residues as written; N and C are the ends. Square brackets hold non-standard residues; d marks the D form. Peptide text beside a SMILES is read from it. * marks the point of attachment. ξ: configuration not given here. X2 = CC(C)C[C@H](N[*:1])C(=O)C[C@H](C(=O)[*:2])C(C)C; Phe(3-CF3) = N[C@@H](Cc1cccc(C(F)(F)F)c1)C(=O)O; Ala(morpholin-4-yl) = N[C@@H](CN1CCOCC1)C(=O)O; Phe(4-COOH) = N[C@@H](Cc1ccc(C(=O)O)cc1)C(=O)O; Phe(3,4-F2) = N[C@@H](Cc1ccc(F)c(F)c1)C(=O)O; Bip = N[C@@H](Cc1ccc(-c2ccccc2)cc1)C(=O)O; NH(CH2)14COOH = O=C(O)CCCCCCCCCCCCCCN*; Phe(3-Me) = Cc1cccc(C[C@H](N)C(=O)O)c1; Lys(Me2) = CN(C)CCCC[C@H](N)C(=O)O; Val(3-OH) = CC(C)(O)[C@H](N)C(=O)O; Val(3-F) = CC(C)(F)[C@H](N)C(=O)O; hArg = N=C(N)NCCCC[C@H](N)C(=O)O; 3Pal = N[C@@H](Cc1cccnc1)C(=O)O; Cha = N[C@@H](CC1CCCCC1)C(=O)O; Cit = NC(=O)NCCC[C@H](N)C(=O)O; Thr(3ξ) = CC(O)[C@H](N)C(=O)O; 12Ado = NCCCCCCCCCCCC(=O)O; dDab = NCC[C@@H](N)C(=O)O; hSer = N[C@@H](CCO)C(=O)O; Carboxymethyl = O=C(O)C*; Orn = NCCC[C@H](N)C(=O)O; Aun = NCCCCCCCCCCC(=O)O; Dab = NCC[C@H](N)C(=O)O; Dap = NC[C@H](N)C(=O)O; AEEA = NCCOCCOCC(=O)O; Sar = CNCC(=O)O

Each compound was assayed against T1, PD-1/PD-L1 interaction (PE-labeled human PD-L1-Ig binding to Jurkat cell line over-expressing human PD-1) (Homo sapiens, UniProt Q15116) (assay: Jurkat-PD-1 Cell Binding High-Content Screening Assay (CBA)). Conditions: Jurkat cell line over-expressing human PD-1; PE-labeled PD-L1-Ig 20 nM final; read-out: Jurkat hPD1-PDL1 IC50.
T1 construct: expressed in transfected cells; host or cells: Jurkat
T1 sequence (Q15116 25-288): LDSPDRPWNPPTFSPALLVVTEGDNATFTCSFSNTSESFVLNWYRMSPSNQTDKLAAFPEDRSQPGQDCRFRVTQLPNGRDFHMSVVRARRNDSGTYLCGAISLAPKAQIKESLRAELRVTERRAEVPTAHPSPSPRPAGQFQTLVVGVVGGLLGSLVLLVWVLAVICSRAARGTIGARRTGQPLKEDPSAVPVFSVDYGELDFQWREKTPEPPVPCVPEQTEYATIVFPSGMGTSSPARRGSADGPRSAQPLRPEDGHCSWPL
Type: cell-based
In short: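 Jurkat cells stably over-expressing human PD-1 were seeded in DMEM with 10% fetal calf serum and pre-incubated with compound for 2 h at 37° C. PE-labeled human PD-L1-Ig was then added at 20 nM final for 1 hour, after which cells were fixed with paraformaldehyde, Hoechst-stained and imaged by high-content microscopy.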

SMILES | IC50 [nM]
Cc1cccc(C[C@@H]2NC(=O)[C@H](CC(=O)O)NC(=O)[C@H](Cc3ccc(OCC(=O)O)cc3)NC(=O)[C@H](CCCCN(C)C)NC(=O)CSC[C@@H](C(=O)N[C@@H](CCCN)C(=O)N[C@@H](CO)C(=O)NCCCCCCCCCCCC(=O)O)NC(=O)[C@H](C(C)O)NC(=O)[C@H](CCO)NC(=O)[C@H](CC3CCCCC3)NC(=O)[C@H](CCN)NC(=O)[C@@H](CC(C)C)NC(=O)[C@H](CCCN)NC(=O)[C@H](CCCNC(N)=O)NC(=O)[C@H](Cc3ccc(-c4ccccc4)cc3)NC(=O)[C@H](C(C)C)NC2=O)c1 (stereo partly drawn) [Compound 3582] ({CH2CO}-[Lys(Me2)]Y(Carboxymethyl)D[Phe(3-Me)]V[Bip][Cit][Orn][dL][Dab][Cha][hSer][Thr(3ξ)]C[Orn]S[12Ado]-OH; thioether N-14) | 71
CC(C)C[C@H]1NC(=O)[C@H](CCCN)NC(=O)[C@H](Cc2ccc(C(=O)O)cc2)NC(=O)[C@H](Cc2ccc(-c3ccccc3)cc2)NC(=O)[C@H](Cc2ccc(C(=O)O)cc2)NC(=O)[C@H](Cc2cccc(C(F)(F)F)c2)NC(=O)[C@H](CC(=O)O)NC(=O)[C@H](Cc2ccc(OCC(=O)O)cc2)NC(=O)[C@H](CN2CCOCC2)NC(=O)CSC[C@@H](C(=O)N[C@@H](CCN)C(=O)NCCCCCCCCCCCCCCC(=O)O)NC(=O)[C@H](CC(=O)O)NC(=O)[C@H](C(C)(C)O)NC(=O)[C@H](CC2CCCCC2)NC(=O)[C@H](CCN)NC1=O [Compound 2949] ({CH2CO}-[Ala(morpholin-4-yl)]Y(Carboxymethyl)D[Phe(3-CF3)][Phe(4-COOH)][Bip][Phe(4-COOH)][Orn][dL][Dab][Cha][Val(3-OH)]DC[Dab]-{NH(CH2)14COOH}; thioether N-14) | 305
CC(C)C[C@H]1NC(=O)[C@H](CCCN)NC(=O)[C@H](CCN)NC(=O)[C@H](Cc2ccc(-c3ccccc3)cc2)NC(=O)[C@H](C(C)C)NC(=O)[C@H](Cc2c[nH]c3ccccc23)NC(=O)[C@H](CC(=O)O)NC(=O)[C@H](Cc2ccc(OCC(=O)O)cc2)NC(=O)[C@H](CN)NC(=O)CSC[C@@H](C(=O)N[C@@H](CC(N)=O)C(=O)NCC(=O)NCCCCCCCCCCCCCCC(=O)O)NC(=O)[C@H](CO)NC(=O)[C@H](C(C)C)NC(=O)[C@H](CC2CCCCC2)NC(=O)[C@H](CCN)NC1=O [Compound 3008] ({CH2CO}-[Dap]Y(Carboxymethyl)DWV[Bip][Dab][Orn][dL][Dab][Cha]VSCNG-{NH(CH2)14COOH}; thioether N-14) | 552
Cc1cccc(C[C@@H]2NC(=O)[C@H](CC(=O)O)NC(=O)[C@H](Cc3ccc(OCC(=O)O)cc3)NC(=O)[C@H](CN)NC(=O)CSC[C@@H](C(=O)N[C@@H](CCCN)C(=O)NCCCCCCCCCCC(=O)O)NC(=O)[C@H]([C@@H](C)O)NC(=O)[C@H](C(C)C)NC(=O)[C@H](CC3CCCCC3)NC(=O)[C@H](Cc3cnc[nH]3)NC(=O)[C@@H](CC(C)C)NC(=O)[C@H](CCCN)NC(=O)[C@H](C(C)C)NC(=O)[C@H](Cc3ccc(-c4ccccc4)cc3)NC(=O)[C@H](C(C)C)NC2=O)c1 [Compound 1109] ({CH2CO}-[Dap]Y(Carboxymethyl)D[Phe(3-Me)]V[Bip]V[Orn][dL]H[Cha]VTC[Orn][Aun]-OH; thioether N-14) | 37.6
CC(C)C[C@H]1NC(=O)[C@H](CCCN)NC(=O)[C@H](Cc2ccc(O)cc2)NC(=O)[C@H](Cc2ccc(-c3ccccc3)cc2)NC(=O)[C@H](Cc2ccc(OCC(=O)O)cc2)NC(=O)[C@H](Cc2ccc(F)c(F)c2)NC(=O)[C@H](CC(=O)O)NC(=O)[C@H](Cc2ccc(OCC(=O)O)cc2)NC(=O)[C@H](CN)NC(=O)CSC[C@@H](C(=O)N[C@@H](CCN)C(=O)NCCOCCOCC(=O)NCCCCCCCCCCC(=O)O)NC(=O)[C@H](CCCN)NC(=O)[C@H](C(C)C)NC(=O)[C@H](CC2CCCCC2)NC(=O)[C@H](CCN)NC1=O [Compound 1313] ({CH2CO}-[Dap]Y(Carboxymethyl)D[Phe(3,4-F2)]Y(Carboxymethyl)[Bip]Y[Orn][dL][Dab][Cha]V[Orn]C[Dab][AEEA][Aun]-OH; thioether N-14) | 109

These reach a lower IC50. Values come first.

IC50 [nM] | SMILES
17.2 | CC(C)C[C@@H]1NC(=O)[C@H](CCN)NC(=O)[C@@H](CC(C)C)NC(=O)[C@H](CCCN)NC(=O)[C@H](C(C)C)NC(=O)[C@H](Cc2ccc(-c3ccccc3)cc2)NC(=O)[C@H](CC(C)C)NC(=O)[C@H](Cc2c[nH]c3ccccc23)NC(=O)[C@H](CC(=O)O)NC(=O)[C@H](Cc2ccc(OCC(=O)O)cc2)NC(=O)[C@H](Cc2ccc(OCC(=O)O)cc2)NC(=O)CSC[C@@H](C(=O)N[C@H](CCN)C(=O)NCCOCCOCC(=O)NCCCCCCCCCCC(=O)O)NC(=O)[C@H](CO)NC(=O)[C@H](C(C)C)CC1=O [Compound 3071] ({CH2CO}-Y(Carboxymethyl)Y(Carboxymethyl)DWL[Bip]V[Orn][dL][Dab][X2]SC[dDab][AEEA][Aun]-OH; thioether N-13)
18.7 | CC(C)C[C@H]1NC(=O)[C@H](CCCN)NC(=O)[C@H](C(C)C)NC(=O)[C@H](Cc2ccc(-c3ccccc3)cc2)NC(=O)[C@H](C(C)C)NC(=O)[C@H](Cc2c[nH]c3ccccc23)NC(=O)[C@H](CC(=O)O)NC(=O)[C@H](Cc2ccc(OCC(=O)O)cc2)NC(=O)[C@H](CCCCNC(=N)N)NC(=O)CSC[C@@H](C(=O)N(C)CC(=O)NCCOCCOCC(=O)N[C@@H](CCCN)C(=O)NCCCCCCCCCCCC(=O)O)NC(=O)[C@H](CO)NC(=O)[C@H](C(C)C)NC(=O)[C@H](CC2CCCCC2)NC(=O)[C@H](CCN)NC1=O [Compound 3361] ({CH2CO}-[hArg]Y(Carboxymethyl)DWV[Bip]V[Orn][dL][Dab][Cha]VSC[Sar][AEEA][Orn][12Ado]-OH; thioether N-14)
18.4 | CC(C)C[C@H]1NC(=O)[C@H](CCCN)NC(=O)[C@H](C(C)C)NC(=O)[C@H](Cc2ccc(-c3ccccc3)cc2)NC(=O)[C@H](C(C)C)NC(=O)[C@H](Cc2c[nH]c3ccccc23)NC(=O)[C@H](CC(=O)O)NC(=O)[C@H](Cc2ccc(OCC(=O)O)cc2)NC(=O)[C@H](Cc2ccc(OCC(=O)O)cc2)NC(=O)CSC[C@@H](C(=O)NCCCCCCCCCCC(=O)O)NC(=O)[C@H](CCCNC(=N)N)NC(=O)[C@H](C(C)C)NC(=O)[C@H](CC2CCCCC2)NC(=O)[C@H](CCN)NC1=O [Compound 2602]
13.6 | CC(C)C[C@H]1NC(=O)[C@H](CCCN)NC(=O)[C@H](C(C)C)NC(=O)[C@H](Cc2ccc(-c3ccccc3)cc2)NC(=O)[C@H](C(C)C)NC(=O)[C@H](Cc2c[nH]c3ccccc23)NC(=O)[C@H](CC(=O)O)NC(=O)[C@H](Cc2ccc(OCC(=O)O)cc2)NC(=O)[C@H](Cc2ccc(OCC(=O)O)cc2)NC(=O)CSC[C@@H](C(=O)N[C@@H](CCCCN)C(=O)NCCCCCCCCCCC(=O)O)NC(=O)[C@H](CN)NC(=O)[C@H](C(C)C)NC(=O)[C@H](CC2CCCCC2)NC(=O)[C@H](CCN)NC1=O [Compound 2538] ({CH2CO}-Y(Carboxymethyl)Y(Carboxymethyl)DWV[Bip]V[Orn][dL][Dab][Cha]V[Dap]CK[Aun]-OH; thioether N-14)
10.9 | Cc1cccc(C[C@@H]2NC(=O)[C@H](CC(=O)O)NC(=O)[C@H](Cc3ccc(OCC(=O)O)cc3)NC(=O)[C@H](CCCNC(=N)N)NC(=O)CSC[C@@H](C(=O)N[C@@H](CCN)C(=O)NCCCCCCCCCCC(=O)O)NC(=O)[C@H](CCC(N)=O)NC(=O)[C@H](C(C)C)NC(=O)[C@H](CC3CCCCC3)NC(=O)[C@H](CCN)NC(=O)[C@@H](CC(C)C)NC(=O)[C@H](CCCN)NC(=O)[C@H](Cc3ccc(OCC(=O)O)cc3)NC(=O)[C@H](Cc3ccc(-c4ccccc4)cc3)NC(=O)[C@H](C(C)(C)F)NC2=O)c1 [Compound 2122] ({CH2CO}-RY(Carboxymethyl)D[Phe(3-Me)][Val(3-F)][Bip]Y(Carboxymethyl)[Orn][dL][Dab][Cha]VQC[Dab][Aun]-OH; thioether N-14)
4.9 | CC(C)C[C@H]1NC(=O)[C@H](CCCN)NC(=O)[C@H](C(C)C)NC(=O)[C@H](Cc2ccc(-c3ccccc3)cc2)NC(=O)[C@H](C(C)C)NC(=O)[C@H](Cc2c[nH]c3ccccc23)NC(=O)[C@H](CC(=O)O)NC(=O)[C@H](Cc2ccc(OCC(=O)O)cc2)NC(=O)[C@H](CCCCNC(=N)N)NC(=O)CSC[C@@H](C(=O)NCC(=O)NCCOCCOCC(=O)N[C@@H](CCCN)C(=O)NCCCCCCCCCCCC(=O)O)NC(=O)[C@H](CO)NC(=O)[C@H](C(C)C)NC(=O)[C@H](CC2CCCCC2)NC(=O)[C@H](CCN)NC1=O [Compound 3036] ({CH2CO}-[hArg]Y(Carboxymethyl)DWV[Bip]V[Orn][dL][Dab][Cha]VSCG[AEEA][Orn][12Ado]-OH; thioether N-14)
9.5 | Cc1cccc(C[C@@H]2NC(=O)[C@H](CC(=O)O)NC(=O)[C@H](Cc3ccc(OCC(=O)O)cc3)NC(=O)[C@H](CN)NC(=O)CSC[C@@H](C(=O)N[C@@H](CCCCN)C(=O)NCCCCCCCCCCC(=O)O)NC(=O)[C@H](CCCNC(=N)N)NC(=O)[C@H](C(C)C)NC(=O)[C@H](CC3CCCCC3)NC(=O)[C@H](CCN)NC(=O)[C@@H](CC(C)C)NC(=O)[C@H](CCCN)NC(=O)[C@H](C(C)C)NC(=O)[C@H](Cc3ccc(-c4ccccc4)cc3)NC(=O)[C@H](C(C)C)NC2=O)c1 [Compound 2536] ({CH2CO}-[Dap]Y(Carboxymethyl)D[Phe(3-Me)]V[Bip]V[Orn][dL][Dab][Cha]VRCK[Aun]-OH; thioether N-14)
19.7 | Cc1cccc(C[C@@H]2NC(=O)[C@H](CC(=O)O)NC(=O)[C@H](Cc3cccnc3)NC(=O)[C@H](CC(N)=O)NC(=O)CSC[C@@H](C(=O)N[C@@H](CCN)C(=O)NCCCCCCCCCCC(=O)O)NC(=O)[C@H]([C@@H](C)O)NC(=O)[C@H](C(C)C)NC(=O)[C@H](CC3CCCCC3)NC(=O)[C@H](CCN)NC(=O)[C@@H](CC(C)C)NC(=O)[C@H](CCCN)NC(=O)[C@H](Cc3ccc(O)cc3)NC(=O)[C@H](Cc3ccc(-c4ccccc4)cc3)NC(=O)[C@H](C(C)C)NC2=O)c1 [Compound 2740] ({CH2CO}-N[3Pal]D[Phe(3-Me)]V[Bip]Y[Orn][dL][Dab][Cha]VTC[Dab][Aun]-OH; thioether N-14)
